Results taken from patent US20240043427A1 (Gilead Sciences, Inc., priority 2020, published 2024).

Tests used:
CD73 [1] = target: T1, CD73 (Homo sapiens (Human), UniProt P21589); type: biochemical; settings: 1 mM NaH2PO4 in enzyme buffer, CD73 0.3 nM, AMP 15 uM
CD73 [2] = target: T1, CD73; assay: MDA-MB-231 Cell Based CD73 Activity Assay (DMEM); settings: MDA-MB-231-GFP cells, DMEM medium with 10% human plasma, 200 uM AMP

T1 sequence (P21589 27-574): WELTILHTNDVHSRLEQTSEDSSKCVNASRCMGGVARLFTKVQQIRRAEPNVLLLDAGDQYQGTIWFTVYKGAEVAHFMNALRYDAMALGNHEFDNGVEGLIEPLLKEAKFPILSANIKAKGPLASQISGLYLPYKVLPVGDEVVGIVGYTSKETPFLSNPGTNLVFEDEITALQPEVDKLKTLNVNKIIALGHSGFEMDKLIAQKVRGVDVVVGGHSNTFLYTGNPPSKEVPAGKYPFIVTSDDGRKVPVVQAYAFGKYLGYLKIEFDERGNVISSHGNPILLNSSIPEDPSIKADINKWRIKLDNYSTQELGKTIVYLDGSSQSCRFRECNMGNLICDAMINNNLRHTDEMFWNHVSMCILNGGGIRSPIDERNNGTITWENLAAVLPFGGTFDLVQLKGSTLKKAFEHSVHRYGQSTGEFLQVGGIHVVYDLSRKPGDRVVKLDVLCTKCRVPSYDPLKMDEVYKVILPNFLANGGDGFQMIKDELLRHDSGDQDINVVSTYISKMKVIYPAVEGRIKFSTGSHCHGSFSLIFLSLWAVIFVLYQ

SMILES	IC50 (CD73 [1]) [nM]	EC50 (CD73 [2]) [nM]
COC(=O)c1cccc(C2CCN(c3cc(-c4c[nH]c(=O)[nH]c4=O)nn4ccnc34)C2)c1 (centres unmarked) [Example 264, Methyl 3-(1-(6-(2,4-dioxo-1,2,3,4-tetrahydropyrimidin-5-yl)imidazo[1,2-b]pyridazin-8-yl)pyrrolidin-3-yl)benzoate]	5.59	88
COC(=O)c1ccc(C2CCN(c3cc(-c4c[nH]c(=O)[nH]c4=O)nn4ccnc34)C2)cc1 (centres unmarked) [Example 265, Methyl 4-(1-(6-(2,4-dioxo-1,2,3,4-tetrahydropyrimidin-5-yl)imidazo[1,2-b]pyridazin-8-yl)pyrrolidin-3-yl)benzoate]	3.22	77.9
O=c1[nH]cc(-c2cc(N3CC(F)(F)C4(CC4)C3)c3nncn3n2)c(=O)[nH]1 [Example 266, 5-(8-(7,7-difluoro-5-azaspiro[2.4]heptan-5-yl)-[1,2,4]triazolo[4,3-b]pyridazin-6-yl)pyrimidine-2,4(1H,3H)-dione]	1.93	13.5
O=C(c1ccc(C2CN(c3cc(-c4c[nH]c(=O)[nH]c4=O)nn4ccnc34)C2)cc1)N1CC(F)(F)C1 [Example 267, 5-(8-(3-(4-(3,3-difluoroazetidine-1-carbonyl)phenyl)azetidin-1-yl)imidazo[1,2-b]pyridazin-6-yl)pyrimidine-2,4(1H,3H)-dione]	34.7	66.6
O=C(c1cccc(C2CN(c3cc(-c4c[nH]c(=O)[nH]c4=O)nn4ccnc34)C2)c1)N1CC(F)(F)C1 [Example 268, 5-(8-(3-(3-(3,3-difluoroazetidine-1-carbonyl)phenyl)azetidin-1-yl)imidazo[1,2-b]pyridazin-6-yl)pyrimidine-2,4(1H,3H)-dione]	97	135
CNC(=O)c1cccc(C2CCN(c3cc(-c4c[nH]c(=O)[nH]c4=O)nn4ccnc34)C2)c1 (centres unmarked) [Example 269, 3-(1-(6-(2,4-dioxo-1,2,3,4-tetrahydropyrimidin-5-yl)imidazo[1,2-b]pyridazin-8-yl)pyrrolidin-3-yl)-N-methylbenzamide]	3.62	27
CNC(=O)c1ccc(C2CCN(c3cc(-c4c[nH]c(=O)[nH]c4=O)nn4ccnc34)C2)cc1 (centres unmarked) [Example 270, 4-(1-(6-(2,4-dioxo-1,2,3,4-tetrahydropyrimidin-5-yl)imidazo[1,2-b]pyridazin-8-yl)pyrrolidin-3-yl)-N-methylbenzamide]	1.13	13.7
O=c1[nH]cc(-c2cc(N3CCC4(CCOC4)C3)c3nccn3n2)c(=O)[nH]1 (centres unmarked) [Example 274, 5-(8-(2-oxa-7-azaspiro[4.4]nonan-7-yl)imidazo[1,2-b]pyridazin-6-yl)pyrimidine-2,4(1H,3H)-dione]	16.5	39.4
O=c1[nH]cc(-c2cc(N3CCC4(CCOCC4)C3)c3nccn3n2)c(=O)[nH]1 [Example 275, 5-(8-(8-oxa-2-azaspiro[4.5]decan-2-yl)imidazo[1,2-b]pyridazin-6-yl)pyrimidine-2,4(1H,3H)-dione]	8.64	36.2
O=c1[nH]cc(-c2cc(N3CCC4(CCCC4)C3)c3nccn3n2)c(=O)[nH]1 [Example 315, 5-(8-(2-azaspiro[4.4]nonan-2-yl)imidazo[1,2-b]pyridazin-6-yl)pyrimidine-2,4(1H,3H)-dione]	6.64	27.6
CC1(C)CN(c2cc(-c3c[nH]c(=O)[nH]c3=O)nn3ccnc23)CC(F)(F)C1 [Example 320, 5-(8-(3,3-difluoro-5,5-dimethylpiperidin-1-yl)imidazo[1,2-b]pyridazin-6-yl)pyrimidine-2,4(1H,3H)-dione]	> 250	1150
O=c1[nH]cc(-c2cc(N3CC(F)(F)C4(CCC4)C3)c3nccn3n2)c(=O)[nH]1 [Example 325, 5-(8-(8,8-difluoro-6-azaspiro[3.4]octan-6-yl)imidazo[1,2-b]pyridazin-6-yl)pyrimidine-2,4(1H,3H)-dione]	1.7	11.2
CC1(C)CN(c2cc(-c3c[nH]c(=O)[nH]c3=O)nn3cc(Cl)nc23)CC1(F)F [Example 328, 5-(2-chloro-8-(3,3-difluoro-4,4-dimethylpyrrolidin-1-yl)imidazo[1,2-b]pyridazin-6-yl)pyrimidine-2,4(1H,3H)-dione]	3.68	40.5

The next lines start with the values.

IC50 (CD73 [1]) [nM]	EC50 (CD73 [2]) [nM]	SMILES
9.9	72.6	O=c1[nH]cc(-c2cc([C@H]3C[C@@H]3c3cnc(C(F)(F)F)nc3)c3nccn3n2)c(=O)[nH]1 [Example 272, 5-(8-((1S,2S)-2-(2-(trifluoromethyl)pyrimidin-5-yl)cyclopropyl)imidazo[1,2-b]pyridazin-6-yl)pyrimidine-2,4(1H,3H)-dione]
9.39	58.1	O=c1[nH]cc(-c2cc([C@@H]3C[C@H]3c3cnc(C(F)(F)F)nc3)c3ncc(F)n3n2)c(=O)[nH]1 [Example 273, 5-(3-fluoro-8-((1R,2R)-2-(2-(trifluoromethyl)pyrimidin-5-yl)cyclopropyl)imidazo[1,2-b]pyridazin-6-yl)pyrimidine-2,4(1H,3H)-dione]
1.07	6.64	N#Cc1ccc([C@H]2C[C@@H]2c2cc(-c3c[nH]c(=O)[nH]c3=O)nn3ccnc23)c(F)c1 [Example 279, 4-((1S,2S)-2-(6-(2,4-dioxo-1,2,3,4-tetrahydropyrimidin-5-yl)imidazo[1,2-b]pyridazin-8-yl)cyclopropyl)-3-fluorobenzonitrile]
0.63	3.4	N#Cc1ccc([C@H]2C[C@@H]2c2cc(-c3c[nH]c(=O)[nH]c3=O)nn3c(F)cnc23)c(F)c1 [Example 310, 4-((1S,2S)-2-(6-(2,4-dioxo-1,2,3,4-tetrahydropyrimidin-5-yl)-3-fluoroimidazo[1,2-b]pyridazin-8-yl)cyclopropyl)-3-fluorobenzonitrile]
0.65	1.21	O=c1[nH]cc(-c2cc([C@H]3C[C@@H]3c3ccc4c(cnn4CC(F)(F)F)c3)c3nccn3n2)c(=O)[nH]1 [Example 316, 5-(8-((1S,2S)-2-(1-(2,2,2-trifluoroethyl)-1H-indazol-5-yl)cyclopropyl)imidazo[1,2-b]pyridazin-6-yl)pyrimidine-2,4(1H,3H)-dione]
1.01	2	O=c1[nH]cc(-c2cc([C@H]3C[C@@H]3c3ccc4c(cnn4CC(F)(F)F)c3)c3ncc(F)n3n2)c(=O)[nH]1 [Example 317, 5-(3-fluoro-8-((1S,2S)-2-(1-(2,2,2-trifluoroethyl)-1H-indazol-5-yl)cyclopropyl)imidazo[1,2-b]pyridazin-6-yl)pyrimidine-2,4(1H,3H)-dione]
0.43	0.06	O=c1[nH]cc(-c2cc([C@H]3C[C@@H]3c3ccc4cnn(CC(F)(F)F)c4c3)c3nccn3n2)c(=O)[nH]1 [Example 318, 5-(8-((1S,2S)-2-(1-(2,2,2-trifluoroethyl)-1H-indazol-6-yl)cyclopropyl)imidazo[1,2-b]pyridazin-6-yl)pyrimidine-2,4(1H,3H)-dione]
0.34	0.07	O=c1[nH]cc(-c2cc([C@H]3C[C@@H]3c3ccc4cnn(CC(F)(F)F)c4c3)c3ncc(F)n3n2)c(=O)[nH]1 [Example 319, 5-(3-fluoro-8-((1S,2S)-2-(1-(2,2,2-trifluoroethyl)-1H-indazol-6-yl)cyclopropyl)imidazo[1,2-b]pyridazin-6-yl)pyrimidine-2,4(1H,3H)-dione]
0.8	0.07	O=c1[nH]cc(-c2cc([C@H]3C[C@@H]3c3ccc4ncn(CC(F)(F)F)c4c3)c3nccn3n2)c(=O)[nH]1 [Example 322, 5-(8-((1S,2S)-2-(1-(2,2,2-trifluoroethyl)-1H-benzo[d]imidazol-6-yl)cyclopropyl)imidazo[1,2-b]pyridazin-6-yl)pyrimidine-2,4(1H,3H)-dione]
0.51	0.06	O=c1[nH]cc(-c2cc([C@H]3C[C@@H]3c3ccc4ncn(CC(F)(F)F)c4c3)c3ncc(F)n3n2)c(=O)[nH]1 [Example 323, 5-(3-fluoro-8-((1S,2S)-2-(1-(2,2,2-trifluoroethyl)-1H-benzo[d]imidazol-6-yl)cyclopropyl)imidazo[1,2-b]pyridazin-6-yl)pyrimidine-2,4(1H,3H)-dione]
0.64	0.71	O=c1[nH]cc(-c2cc([C@H]3C[C@@H]3c3ccc4c(C(F)(F)F)nn(CC(F)(F)F)c4c3)c3ncc(F)n3n2)c(=O)[nH]1 [Example 329, 5-(3-fluoro-8-((1S,2S)-2-(1-(2,2,2-trifluoroethyl)-3-(trifluoromethyl)-1H-indazol-6-yl)cyclopropyl)imidazo[1,2-b]pyridazin-6-yl)pyrimidine-2,4(1H,3H)-dione]
1.07	0.51	O=c1[nH]cc(-c2cc(N3C[C@H](Oc4cc(C(F)(F)F)ccn4)C(F)(F)C3)c3nccn3n2)c(=O)[nH]1 [Example 330, (S)-5-(8-(3,3-difluoro-4-((4-(trifluoromethyl)pyridin-2-yl)oxy)pyrrolidin-1-yl)imidazo[1,2-b]pyridazin-6-yl)pyrimidine-2,4(1H,3H)-dione]
16.2	11.1	O=c1[nH]cc(-c2cc(N3C[C@@H](Oc4cc(C(F)(F)F)ccn4)C(F)(F)C3)c3nccn3n2)c(=O)[nH]1 [Example 331, (R)-5-(8-(3,3-difluoro-4-((4-(trifluoromethyl)pyridin-2-yl)oxy)pyrrolidin-1-yl)imidazo[1,2-b]pyridazin-6-yl)pyrimidine-2,4(1H,3H)-dione]
8.61	26.9	O=c1[nH]cc(-c2cc(N3C[C@@H](Oc4ccc(OC(F)F)cn4)C(F)(F)C3)c3nccn3n2)c(=O)[nH]1 [Example 332, (R)-5-(8-(4-((5-(difluoromethoxy)pyridin-2-yl)oxy)-3,3-difluoropyrrolidin-1-yl)imidazo[1,2-b]pyridazin-6-yl)pyrimidine-2,4(1H,3H)-dione]
0.89	1.91	O=c1[nH]cc(-c2cc(N3C[C@H](Oc4ccc(OC(F)F)cn4)C(F)(F)C3)c3nccn3n2)c(=O)[nH]1 [Example 333, (S)-5-(8-(4-((5-(difluoromethoxy)pyridin-2-yl)oxy)-3,3-difluoropyrrolidin-1-yl)imidazo[1,2-b]pyridazin-6-yl)pyrimidine-2,4(1H,3H)-dione]
